By Ki is commonly meant a dissociation constant, usually derived from enzyme kinetics or from competition with a known ligand. Broadly, the AC50 is the concentration giving half of the maximal activity seen. In general, EC50 refers to the concentration at which the effect is half-maximal.

From ChEMBL document CHEMBL1201862, “PubChem BioAssay data set” (2004) come the findings set out here.

Active and inactive are the calls of the source.

The target in assay [1] is Serine/threonine-protein kinase pim-1 (Homo sapiens, UniProt P11309). The format is functional.
Assay [2] concerns the target Cell division cycle 7-related protein kinase (Homo sapiens, UniProt O00311). The format is functional.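 Note: value obtained from a kinome-wide kinase panel.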
Assay [3] concerns the target Dual specificity protein kinase CLK4 (Homo sapiens, UniProt Q9HAZ1). The format is functional.
Assay [4] has as its target Homeodomain-interacting protein kinase 2 (Homo sapiens, UniProt Q9H2X6). The assay is classed as functional.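 Note: measured within a kinome-wide kinase profiling panel, HIPK2 being one panel member.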
In assay [5] the target is T1, Interleukin-1 receptor-associated kinase 4 (Homo sapiens, UniProt Q9NWZ3).
T1 sequence (Q9NWZ3 whole entry): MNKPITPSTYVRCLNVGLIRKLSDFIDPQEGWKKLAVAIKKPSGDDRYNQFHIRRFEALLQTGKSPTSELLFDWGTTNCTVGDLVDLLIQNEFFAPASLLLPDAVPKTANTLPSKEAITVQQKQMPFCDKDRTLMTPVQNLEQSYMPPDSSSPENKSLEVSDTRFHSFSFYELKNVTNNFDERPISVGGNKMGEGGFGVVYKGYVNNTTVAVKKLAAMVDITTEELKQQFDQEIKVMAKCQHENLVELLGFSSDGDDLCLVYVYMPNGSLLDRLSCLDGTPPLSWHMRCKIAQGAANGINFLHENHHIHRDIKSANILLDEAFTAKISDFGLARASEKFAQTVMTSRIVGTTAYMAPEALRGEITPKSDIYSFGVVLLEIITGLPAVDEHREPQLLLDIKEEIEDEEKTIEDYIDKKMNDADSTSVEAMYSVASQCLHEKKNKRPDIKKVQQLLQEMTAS
The format is functional.

Assay [6] concerns the target Glycogen synthase kinase-3 beta (Homo sapiens, UniProt P49841). The assay is classed as functional.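 Note: value comes from a broad kinome profiling panel, with GSK3B as the panel member.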
Assay [7] addresses cAMP-dependent protein kinase catalytic subunit alpha (Homo sapiens, UniProt P17612). The assay is classed as functional.
Assay [8] addresses Cytochrome P450 2D6 (Homo sapiens, UniProt P10635).
In assay [9] the target is T2, Cytochrome P450 1A2 (Homo sapiens, UniProt P05177).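 Note: PubChem cytochrome P450 panel assay, CYP1A2 panel member.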
T2 sequence (P05177 whole entry): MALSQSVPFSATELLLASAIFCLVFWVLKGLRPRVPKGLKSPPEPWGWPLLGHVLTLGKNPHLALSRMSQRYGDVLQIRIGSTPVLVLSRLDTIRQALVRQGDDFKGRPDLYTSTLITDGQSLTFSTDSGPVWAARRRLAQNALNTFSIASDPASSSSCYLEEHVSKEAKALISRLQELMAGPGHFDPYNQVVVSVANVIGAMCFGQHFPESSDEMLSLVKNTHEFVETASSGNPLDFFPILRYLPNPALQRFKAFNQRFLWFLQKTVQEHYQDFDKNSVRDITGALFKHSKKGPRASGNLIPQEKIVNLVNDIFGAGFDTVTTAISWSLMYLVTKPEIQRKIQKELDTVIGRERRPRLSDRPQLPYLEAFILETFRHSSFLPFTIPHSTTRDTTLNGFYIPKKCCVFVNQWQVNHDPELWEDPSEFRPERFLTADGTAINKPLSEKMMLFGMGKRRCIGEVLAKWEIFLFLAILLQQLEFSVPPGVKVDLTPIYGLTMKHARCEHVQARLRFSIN

Assay [10] concerns the target Adenosylmethionine-8-amino-7-oxononanoate aminotransferase (Mycobacterium tuberculosis, UniProt P9WQ81). Description: Mycobacterium tuberculosis BioA enzyme inhibitor Measured in Biochemical System Using Plate Reader - 2163-02_Inhibitor_Dose_CherryPick_Activity. The assay is classed as functional, Mycobacterium tuberculosis UT205.
The target in assay [11] is Protein Wnt-3a (Mus musculus, UniProt P27467). Description: Wnt3a-driven reporter signaling inhibition, dose response, selectivity assay for Gli-SUFU antagonist project, Wnt-LIGHT cells, luminescence (AID 651570).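 Note: Wnt-LIGHT reporter cells stimulated with conditioned medium from Wnt3a-producing cells.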 The format is functional. The conditions noted are these: read-out: IC50_Mean.
Assay [12] has as its target T3, Endoribonuclease toxin MazF (Escherichia coli K-12, UniProt P0AE70).
T3 sequence (P0AE70 whole entry): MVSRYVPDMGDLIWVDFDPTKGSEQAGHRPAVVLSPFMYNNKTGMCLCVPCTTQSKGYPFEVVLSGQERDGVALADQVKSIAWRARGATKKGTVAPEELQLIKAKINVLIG
The assay is described as follows: fluorescent RNA oligo signal without MazF, dose response, counter-screen for MazEF activator project, biochemical, fluorescence, single-stranded RNase substrate (AID 588502). The assay is classed as functional. For orientation: A counterscreen serves to expose hits that act by an unwanted route or on another target.

Assay [13] addresses T3, Endoribonuclease toxin MazF. The assay is described as follows: MazF toxin RNase activators, dose response, biochemical, fluorescence, single-stranded RNA substrate, uHTS hits (AID 588481). The format is functional.
The target of assay [14] is T4, Sentrin-specific protease 8 (Homo sapiens, UniProt Q96LD8).
T4 sequence (Q96LD8 whole entry): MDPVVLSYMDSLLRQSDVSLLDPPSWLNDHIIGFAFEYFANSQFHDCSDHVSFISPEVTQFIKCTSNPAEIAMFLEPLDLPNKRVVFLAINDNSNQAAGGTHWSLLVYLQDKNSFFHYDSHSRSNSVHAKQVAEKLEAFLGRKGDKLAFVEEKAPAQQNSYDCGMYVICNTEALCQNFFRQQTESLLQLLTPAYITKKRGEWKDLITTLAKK
Description: SENP8 protease inhibitors, SAR follow-up, biochemical, luminescence (AID 504501). The format is functional.

Assay [15] addresses T5, Caspase-3 (Homo sapiens, UniProt P42574).
T5 sequence (P42574 whole entry): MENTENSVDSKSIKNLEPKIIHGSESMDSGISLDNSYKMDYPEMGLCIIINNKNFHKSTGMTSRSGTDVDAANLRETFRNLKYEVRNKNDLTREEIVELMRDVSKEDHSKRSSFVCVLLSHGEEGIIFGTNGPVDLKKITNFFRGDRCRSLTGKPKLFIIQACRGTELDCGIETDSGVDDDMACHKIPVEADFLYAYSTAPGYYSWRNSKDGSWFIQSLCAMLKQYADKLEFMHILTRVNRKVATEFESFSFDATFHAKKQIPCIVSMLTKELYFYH
Description: SAR Analysis of small molecule inhibitors of Sentrin-specific proteases (SENPs) using a Caspase-3 Selectivity assay. [Related pubchem assays (depositor defined):AID2540, AID2599, AID434973, AID489001]. The format is functional.

Assay [16] deals with T6, Sentrin-specific protease 7 (Homo sapiens, UniProt Q9BQF6).
T6 sequence (Q9BQF6 whole entry): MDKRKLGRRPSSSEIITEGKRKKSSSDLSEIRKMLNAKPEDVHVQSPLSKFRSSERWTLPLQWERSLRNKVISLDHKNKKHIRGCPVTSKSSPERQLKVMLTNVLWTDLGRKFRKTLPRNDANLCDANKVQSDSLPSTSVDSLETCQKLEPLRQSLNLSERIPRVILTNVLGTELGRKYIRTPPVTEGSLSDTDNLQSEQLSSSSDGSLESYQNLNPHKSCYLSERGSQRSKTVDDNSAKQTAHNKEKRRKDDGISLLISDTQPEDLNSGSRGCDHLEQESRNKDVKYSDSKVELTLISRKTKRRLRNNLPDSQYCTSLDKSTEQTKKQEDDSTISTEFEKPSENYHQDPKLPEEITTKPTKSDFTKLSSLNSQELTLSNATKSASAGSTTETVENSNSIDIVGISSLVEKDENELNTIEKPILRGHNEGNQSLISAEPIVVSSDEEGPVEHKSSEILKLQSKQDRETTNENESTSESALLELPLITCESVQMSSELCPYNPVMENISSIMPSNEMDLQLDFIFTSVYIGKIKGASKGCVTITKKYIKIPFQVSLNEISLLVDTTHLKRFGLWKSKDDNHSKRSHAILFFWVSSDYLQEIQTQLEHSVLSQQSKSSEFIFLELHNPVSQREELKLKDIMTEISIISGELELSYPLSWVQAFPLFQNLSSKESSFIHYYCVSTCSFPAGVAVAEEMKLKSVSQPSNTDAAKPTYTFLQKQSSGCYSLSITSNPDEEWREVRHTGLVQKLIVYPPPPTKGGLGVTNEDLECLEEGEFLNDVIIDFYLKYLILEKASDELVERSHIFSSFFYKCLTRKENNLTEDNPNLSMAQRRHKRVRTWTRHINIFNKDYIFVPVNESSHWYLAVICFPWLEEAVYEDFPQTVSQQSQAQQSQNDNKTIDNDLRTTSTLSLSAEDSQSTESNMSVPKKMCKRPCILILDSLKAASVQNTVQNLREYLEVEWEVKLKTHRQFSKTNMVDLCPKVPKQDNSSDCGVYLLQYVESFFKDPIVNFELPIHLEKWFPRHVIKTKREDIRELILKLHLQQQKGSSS
Description: SENP7 protease inhibitors, SAR follow-up, biochemical, luminescence (AID 504497). The format is functional.

Assay [17] has as its target T7, Sentrin-specific protease 6 (Homo sapiens, UniProt Q9GZR1).
T7 sequence (Q9GZR1 whole entry): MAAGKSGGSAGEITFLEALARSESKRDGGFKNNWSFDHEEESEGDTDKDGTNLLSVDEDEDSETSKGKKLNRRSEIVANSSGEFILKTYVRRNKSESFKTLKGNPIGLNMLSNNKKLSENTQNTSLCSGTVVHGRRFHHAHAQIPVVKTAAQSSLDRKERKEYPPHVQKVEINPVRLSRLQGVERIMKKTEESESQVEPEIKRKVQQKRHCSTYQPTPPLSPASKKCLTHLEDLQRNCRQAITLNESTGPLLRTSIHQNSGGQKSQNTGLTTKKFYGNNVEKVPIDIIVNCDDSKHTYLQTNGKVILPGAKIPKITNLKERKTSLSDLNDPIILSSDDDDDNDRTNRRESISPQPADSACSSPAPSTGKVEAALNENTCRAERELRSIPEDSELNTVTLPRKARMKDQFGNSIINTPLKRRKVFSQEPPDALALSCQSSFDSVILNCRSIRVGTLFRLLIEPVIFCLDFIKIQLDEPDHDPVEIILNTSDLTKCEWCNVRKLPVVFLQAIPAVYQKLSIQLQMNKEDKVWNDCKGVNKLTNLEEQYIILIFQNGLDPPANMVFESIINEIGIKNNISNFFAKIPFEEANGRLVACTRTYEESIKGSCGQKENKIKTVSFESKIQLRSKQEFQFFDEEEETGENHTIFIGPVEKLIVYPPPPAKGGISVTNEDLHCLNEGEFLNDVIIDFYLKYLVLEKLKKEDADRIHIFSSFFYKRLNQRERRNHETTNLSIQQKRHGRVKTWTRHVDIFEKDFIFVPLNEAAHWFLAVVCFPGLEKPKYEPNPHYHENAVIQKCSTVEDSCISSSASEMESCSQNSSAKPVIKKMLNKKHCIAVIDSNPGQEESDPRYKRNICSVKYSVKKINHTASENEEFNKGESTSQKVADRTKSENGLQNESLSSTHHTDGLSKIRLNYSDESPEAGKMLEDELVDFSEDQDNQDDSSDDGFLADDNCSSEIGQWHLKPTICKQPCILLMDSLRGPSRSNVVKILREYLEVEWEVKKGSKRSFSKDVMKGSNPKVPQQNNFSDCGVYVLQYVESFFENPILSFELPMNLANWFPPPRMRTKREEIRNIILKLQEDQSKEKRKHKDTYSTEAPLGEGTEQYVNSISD
Description: SAR Analysis of small molecule inhibitors of Sentrin-specific protease 6 (SENP6) using a Luminescent assay. [Related pubchem assays (depositor defined):AID2582, AID2599]. The format is functional.

Chain of Adenosylmethionine-8-amino-7-oxononanoate aminotransferase (P9WQ81 whole entry): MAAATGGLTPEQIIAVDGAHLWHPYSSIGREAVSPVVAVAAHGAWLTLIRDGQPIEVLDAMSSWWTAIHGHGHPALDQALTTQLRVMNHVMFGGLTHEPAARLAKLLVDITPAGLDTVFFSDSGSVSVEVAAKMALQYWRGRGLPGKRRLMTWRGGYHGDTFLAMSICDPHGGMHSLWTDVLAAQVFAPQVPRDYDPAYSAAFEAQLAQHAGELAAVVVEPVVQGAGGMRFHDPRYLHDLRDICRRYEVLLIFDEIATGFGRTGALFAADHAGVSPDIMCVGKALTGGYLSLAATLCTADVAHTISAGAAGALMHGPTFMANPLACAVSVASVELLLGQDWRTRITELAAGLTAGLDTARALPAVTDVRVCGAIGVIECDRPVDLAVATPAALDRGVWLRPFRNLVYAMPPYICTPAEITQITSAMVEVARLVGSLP
Chain of Protein Wnt-3a (P27467 whole entry): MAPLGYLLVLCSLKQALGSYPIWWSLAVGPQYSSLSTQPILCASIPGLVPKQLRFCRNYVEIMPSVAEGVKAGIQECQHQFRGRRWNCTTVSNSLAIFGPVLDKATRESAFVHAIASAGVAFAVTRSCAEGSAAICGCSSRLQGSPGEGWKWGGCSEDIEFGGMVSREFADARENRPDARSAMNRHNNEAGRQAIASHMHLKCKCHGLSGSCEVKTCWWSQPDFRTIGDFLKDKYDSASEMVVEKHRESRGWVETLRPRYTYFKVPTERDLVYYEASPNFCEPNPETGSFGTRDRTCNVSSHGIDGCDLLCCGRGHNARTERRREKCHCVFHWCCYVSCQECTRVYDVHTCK
Chain of Serine/threonine-protein kinase pim-1 (P11309 whole entry): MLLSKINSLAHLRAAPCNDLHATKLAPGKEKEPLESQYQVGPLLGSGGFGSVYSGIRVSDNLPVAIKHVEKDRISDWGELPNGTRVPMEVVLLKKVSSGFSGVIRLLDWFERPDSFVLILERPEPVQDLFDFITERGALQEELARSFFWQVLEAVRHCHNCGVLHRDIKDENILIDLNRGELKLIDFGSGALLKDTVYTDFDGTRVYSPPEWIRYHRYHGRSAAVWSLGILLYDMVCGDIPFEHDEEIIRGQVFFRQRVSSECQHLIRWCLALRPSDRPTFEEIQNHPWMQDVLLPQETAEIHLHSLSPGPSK
Chain of Cytochrome P450 2D6 (P10635 whole entry): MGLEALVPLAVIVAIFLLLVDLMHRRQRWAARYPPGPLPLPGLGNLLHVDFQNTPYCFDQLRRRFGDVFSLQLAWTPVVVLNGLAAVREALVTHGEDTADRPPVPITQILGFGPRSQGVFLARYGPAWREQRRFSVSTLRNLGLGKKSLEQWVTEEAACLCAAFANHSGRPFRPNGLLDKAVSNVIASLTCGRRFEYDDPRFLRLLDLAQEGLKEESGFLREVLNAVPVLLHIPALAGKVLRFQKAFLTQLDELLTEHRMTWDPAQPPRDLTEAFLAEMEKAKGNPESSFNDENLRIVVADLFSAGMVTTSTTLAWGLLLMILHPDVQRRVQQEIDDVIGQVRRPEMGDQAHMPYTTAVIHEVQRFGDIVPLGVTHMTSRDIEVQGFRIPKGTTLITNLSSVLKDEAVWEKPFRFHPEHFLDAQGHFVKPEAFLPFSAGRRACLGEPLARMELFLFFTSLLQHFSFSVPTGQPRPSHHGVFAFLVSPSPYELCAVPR
Chain of Glycogen synthase kinase-3 beta (P49841 whole entry): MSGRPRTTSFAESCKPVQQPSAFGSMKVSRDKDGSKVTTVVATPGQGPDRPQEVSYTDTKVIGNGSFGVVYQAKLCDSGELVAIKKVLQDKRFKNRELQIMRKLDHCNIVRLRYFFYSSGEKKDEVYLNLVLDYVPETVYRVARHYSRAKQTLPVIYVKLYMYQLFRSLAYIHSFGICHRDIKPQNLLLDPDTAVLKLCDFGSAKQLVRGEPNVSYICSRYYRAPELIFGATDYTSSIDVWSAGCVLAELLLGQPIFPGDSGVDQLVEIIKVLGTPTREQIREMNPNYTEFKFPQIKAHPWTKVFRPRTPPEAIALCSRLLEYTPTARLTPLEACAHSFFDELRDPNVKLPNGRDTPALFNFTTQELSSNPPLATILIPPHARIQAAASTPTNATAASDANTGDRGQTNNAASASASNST
Chain of Dual specificity protein kinase CLK4 (Q9HAZ1 whole entry): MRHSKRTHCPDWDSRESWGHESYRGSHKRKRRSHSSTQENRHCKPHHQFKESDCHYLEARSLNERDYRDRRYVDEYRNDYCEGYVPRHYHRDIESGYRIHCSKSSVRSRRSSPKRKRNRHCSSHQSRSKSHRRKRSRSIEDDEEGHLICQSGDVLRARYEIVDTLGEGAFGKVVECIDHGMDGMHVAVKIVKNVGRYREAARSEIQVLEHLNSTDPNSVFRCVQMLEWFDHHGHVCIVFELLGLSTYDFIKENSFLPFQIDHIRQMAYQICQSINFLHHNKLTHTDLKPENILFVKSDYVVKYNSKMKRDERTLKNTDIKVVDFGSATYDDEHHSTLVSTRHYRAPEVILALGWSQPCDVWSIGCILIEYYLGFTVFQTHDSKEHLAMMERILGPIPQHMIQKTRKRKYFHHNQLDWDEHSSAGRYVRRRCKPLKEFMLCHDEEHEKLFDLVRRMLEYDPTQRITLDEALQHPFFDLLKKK
Chain of Homeodomain-interacting protein kinase 2 (Q9H2X6 whole entry): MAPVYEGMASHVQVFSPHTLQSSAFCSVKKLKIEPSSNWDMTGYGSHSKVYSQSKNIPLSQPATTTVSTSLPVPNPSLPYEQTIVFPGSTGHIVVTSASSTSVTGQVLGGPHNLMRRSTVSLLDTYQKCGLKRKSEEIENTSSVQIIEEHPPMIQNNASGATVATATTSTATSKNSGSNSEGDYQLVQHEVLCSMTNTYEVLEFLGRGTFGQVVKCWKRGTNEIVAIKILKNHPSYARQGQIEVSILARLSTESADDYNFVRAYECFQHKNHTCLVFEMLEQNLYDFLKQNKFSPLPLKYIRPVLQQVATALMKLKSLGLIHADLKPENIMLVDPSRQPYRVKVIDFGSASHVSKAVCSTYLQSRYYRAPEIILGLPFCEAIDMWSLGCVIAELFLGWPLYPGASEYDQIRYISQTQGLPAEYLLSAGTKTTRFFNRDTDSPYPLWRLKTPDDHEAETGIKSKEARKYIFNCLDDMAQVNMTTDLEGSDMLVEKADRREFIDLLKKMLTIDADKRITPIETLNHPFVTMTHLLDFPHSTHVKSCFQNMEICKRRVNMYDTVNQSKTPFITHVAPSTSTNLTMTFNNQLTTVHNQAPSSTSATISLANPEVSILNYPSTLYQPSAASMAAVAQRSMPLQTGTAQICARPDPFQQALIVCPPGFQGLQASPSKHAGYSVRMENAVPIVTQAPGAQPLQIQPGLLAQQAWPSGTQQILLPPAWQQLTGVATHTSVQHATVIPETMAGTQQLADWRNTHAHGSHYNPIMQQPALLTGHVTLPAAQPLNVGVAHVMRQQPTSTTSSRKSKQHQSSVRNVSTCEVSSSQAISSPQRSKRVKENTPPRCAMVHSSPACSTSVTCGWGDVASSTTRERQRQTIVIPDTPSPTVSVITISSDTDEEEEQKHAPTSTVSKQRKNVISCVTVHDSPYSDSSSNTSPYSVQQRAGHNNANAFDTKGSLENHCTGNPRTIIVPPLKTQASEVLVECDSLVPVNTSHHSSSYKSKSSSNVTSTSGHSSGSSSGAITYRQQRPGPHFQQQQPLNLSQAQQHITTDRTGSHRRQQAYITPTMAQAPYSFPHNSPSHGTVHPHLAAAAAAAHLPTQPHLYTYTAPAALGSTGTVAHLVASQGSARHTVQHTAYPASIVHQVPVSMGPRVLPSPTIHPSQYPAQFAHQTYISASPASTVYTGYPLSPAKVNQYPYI
Chain of Cell division cycle 7-related protein kinase (O00311 whole entry): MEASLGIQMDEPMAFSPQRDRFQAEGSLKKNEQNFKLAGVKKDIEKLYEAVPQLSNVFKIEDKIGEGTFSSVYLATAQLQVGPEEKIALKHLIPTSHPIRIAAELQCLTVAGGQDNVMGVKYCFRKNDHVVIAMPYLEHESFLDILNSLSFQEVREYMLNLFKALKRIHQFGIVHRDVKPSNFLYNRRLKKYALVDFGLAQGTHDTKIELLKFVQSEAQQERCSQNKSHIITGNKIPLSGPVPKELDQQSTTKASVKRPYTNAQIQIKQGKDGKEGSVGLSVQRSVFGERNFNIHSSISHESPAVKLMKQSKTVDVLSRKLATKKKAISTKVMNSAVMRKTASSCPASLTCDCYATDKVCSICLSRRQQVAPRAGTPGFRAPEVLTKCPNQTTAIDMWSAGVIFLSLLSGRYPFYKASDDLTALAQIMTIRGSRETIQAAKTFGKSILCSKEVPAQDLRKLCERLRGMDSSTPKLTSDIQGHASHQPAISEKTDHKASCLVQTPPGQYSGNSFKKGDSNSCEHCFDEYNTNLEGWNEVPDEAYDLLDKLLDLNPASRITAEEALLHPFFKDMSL

`NC(=O)c1ccc(-c2ccnc(N)n2)cc1N1CCCCC1`: the Ki in assay [1] is > 10 µM (inactive); in assay [2], 0.00794 µM (active); in assay [3], 0.00316 µM (active); in [4] it was > 3.16 µM (inactive); in [5], 5.01 µM (active); in assay [6], 1 µM (active). The Ki in [7] is > 7.94 µM (inactive).
As for `Cc1nc2nc(SCC(=O)NCc3ccco3)nn2c(C)c1Cc1c(F)cccc1Cl`, the AC50 is 28.2 µM (inconclusive) in assay [8], 20 µM (inconclusive) in [9] and 1.38 µM (active) in assay [10].
As to `CCCn1c(SCC(=O)Nc2nc(-c3ccc(OC)cc3)cs2)nc2c1c(=O)n(C)c(=O)n2C`, in assay [11], the IC50 was 1.32 µM (active). Besides, the EC50 in [12] and in [13] was > 99 µM (inactive) in each case.
Turning to `C=CCn1c(COc2ccccc2F)nnc1SCCN1C(=O)c2ccccc2C1=O`, the AC50 in assay [10] is 7.95 µM (active).
Turning to `CCN(CC)S(=O)(=O)c1ccc(C)c(NC(=S)N2CCN(Cc3ccc4c(c3)OCO4)CC2)c1`, the IC50 in [11] was 2.35 µM (active).
Consider `Clc1ccc(N/N=C/c2cn(Cc3ccccc3)c3ccccc23)cc1`, for which the IC50 in [14], in assay [15], in [16] and in [17] was > 99 µM (inactive) throughout.
For the molecule `O=C(Nc1ccc(-c2nc3cc(Cl)ccc3o2)cc1)c1ccccc1`, the IC50 in [14], in assay [15], in assay [16] and in assay [17] was > 99 µM (inactive) each time.
Regarding `O=C(Nc1ccc(Oc2ccccc2)cc1)c1ccc2c(c1)OCO2`, the IC50 in [14] was 2.2 µM (active); in [15], 1.99 µM (active); in [16] it was 1.06 µM (active); in assay [17], 1.55 µM (active).
